# According to patent EP4799619A1, “COMPOUND TARGETING EGR-1 AND USE THEREOF FOR TREATMENT OF ATOPIC DERMATITIS” (AgeraMedi, Inc., priority 2023, dated 2025):
# Tests used:
# TSLP = test: RT-PCR of EGR-1 target gene mRNA in TNFα-stimulated HaCaT cells: TSLP; assay type: cell-based, human; details: 0, 5, 10, and 20 µM for 30 minutes, then TNFα 10 ng/mL for 12 hours, FIG. 14
# Description: (§1) To determine whether the compounds of the present invention (Compounds 21, 23, and 25) inhibit expression of TSLP, IL-1β, and IL-6 genes, which are EGR-1 target genes playing a key role in atopic dermatitis exacerbation, the inhibitory effect of the compounds on mRNA expression of an EGR-1 target gene TSLP was evaluated by reverse transcription-polymerase chain reaction (RT-PCR) in HaCaT keratinocyte cells.
# (§2) Specifically, HaCaT keratinocyte cells (purchased from Cell Lines Service, Eppelheim, Germany) were passaged at a seeding density of 1x10^6 cells per 100 mm cell culture dish in Dulbecco's modified Eagle's medium (Invitrogen Life Technologies) containing 10% fetal bovine serum (Invitrogen Life Technologies) and antibiotic-antifungal agent mix solution (Invitrogen Life Technologies), once every two days, and cultured at 37 °C in a 5% CO2 incubator.
# (§3) HaCaT cells were treated with the compounds of the present invention (Compound 21, Compound 23, and Compound 25) at concentrations of 0, 5, 10, and 20 µM, respectively, for 30 minutes, followed by treatment with TNFα in a concentration of 10 ng/mL for 12 hours, after which the cells were harvested. Total RNA was extracted using TRIzol RNA isolation reagents (TRIzol Life Technologies Korea). A total of 0.5 µg of total RNA was reverse transcribed to synthesize complementary DNA (cDNA) according to the method recommended by the manufacturer using an iScript cDNA synthesis kit (Bio-Rad, Hercules, Calif., U.S.A.). PCR was performed using 0.0125 µg of double-stranded cDNA.
# (§4) Glyceraldehyde-3-phosphate dehydrogenase (GAPDH), a housekeeping gene, was used as the control group. The double-stranded cDNA was denatured at 95 °C for 5 minutes and then subjected to cycles of reaction at 94 °C for 1 minute, 65 °C for 2 minutes, and 70 °C for 1 minute, repeated 30 times. The final product of PCR was electrophoresed on 1% agarose gel, stained with ethidium bromide (EtBr), and confirmed.
# IL-1β = test: RT-PCR of EGR-1 target gene mRNA in TNFα-stimulated HaCaT cells: IL-1β; assay type: cell-based, human; details: 0, 5, 10, and 20 µM for 30 minutes, then TNFα 10 ng/mL for 12 hours, FIG. 14
# Description: as §1, §2, §3, §4
# IL-6 = test: RT-PCR of EGR-1 target gene mRNA in TNFα-stimulated HaCaT cells: IL-6; assay type: cell-based, human; details: 0, 5, 10, and 20 µM for 30 minutes, then TNFα 10 ng/mL for 12 hours, FIG. 14
# Description: as §1, §2, §3, §4
# [1] = system: animal model of atopic dermatitis; test: DNCB-induced animal model of atopic dermatitis, topical application; assay type: in vivo, BALB/c mice; details: 0.1% applied to ear; for epidermal thickness / dermal thickness: day 22, H&E staining; for epidermal thickness: normal 24.47±2.353, DNCB only 37.27±4.393; for dermal thickness: normal 143.2±19.61, DNCB only 197.5±17.83; for macroscopic skin condition: day 22, FIG. 15B; for expression of filaggrin / expression of TSLP: immunofluorescence of skin tissue; for expression of filaggrin: FIG. 17B; for expression of TSLP: compared to positive control group, FIG. 17A; for expression of MPO (neutrophil marker) / expression of F4/80 (macrophage marker): immunohistochemistry; for expression of MPO (neutrophil marker): FIG. 16C; for expression of F4/80 (macrophage marker): FIG. 16D; for mast cell infiltration / number of mast cells infiltrated: toluidine blue staining; for mast cell infiltration: compared to the positive control group, FIG. 16A; for number of mast cells infiltrated: normal 11±3, DNCB 38±6
# EGR-1 [2] = target: T1, EGR-1 (Homo sapiens, UniProt P18146); test: EGR-1 DNA binding activity assay (EDBA); set-up: made in house; details: EGR-1 DNA binding inhibitory activity; EGR-1 overexpressing cell lysate; absorbance at 450 nm; compound concentration not given
# T1 sequence (P18146 whole entry): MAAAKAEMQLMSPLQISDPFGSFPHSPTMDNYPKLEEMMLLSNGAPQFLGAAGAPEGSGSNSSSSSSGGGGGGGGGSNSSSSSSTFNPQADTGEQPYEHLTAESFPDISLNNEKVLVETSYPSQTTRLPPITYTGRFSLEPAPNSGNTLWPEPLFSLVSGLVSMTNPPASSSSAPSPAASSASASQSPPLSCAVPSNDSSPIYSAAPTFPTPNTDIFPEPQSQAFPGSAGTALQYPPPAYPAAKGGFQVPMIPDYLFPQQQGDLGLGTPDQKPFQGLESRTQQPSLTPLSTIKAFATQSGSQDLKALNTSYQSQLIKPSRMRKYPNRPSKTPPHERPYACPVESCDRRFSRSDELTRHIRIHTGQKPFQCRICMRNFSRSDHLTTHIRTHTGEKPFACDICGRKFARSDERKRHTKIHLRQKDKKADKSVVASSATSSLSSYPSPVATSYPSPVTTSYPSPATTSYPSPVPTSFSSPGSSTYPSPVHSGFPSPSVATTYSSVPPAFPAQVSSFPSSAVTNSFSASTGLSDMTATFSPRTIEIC
# Summary of the method: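 Compound pre-incubated 30 min at room temperature with EGR-1-overexpressing cell lysate (10 mM Tris pH 7.5, 50 mM KCl, 2% BSA, 8% glycerol), then 1 h on avidin-immobilised biotin-EBS duplex DNA. Bound EGR-1 detected by antibody ELISA with HRP/TMB at 450 nm; % inhibition versus lysate-only wells.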
# EGR-1 [3] = target: T1, EGR-1; test: Electrophoretic mobility shift assay (EMSA) of EGR-1 DNA binding; set-up: made in house; host or cells: Sf21 insect cells (crude cell extract); details: EGR-1 overexpressing Sf21 cell extract, biotin-labeled probe; FIG. 13
# Description: When a nucleic acid and a protein are bound to each other, the complex of the nucleic acid and the protein moves more slowly than the nucleic acid alone, so that in an EMSA, a band of the nucleic acid bound to the protein appears higher than a band of only the nucleic acid.
# In detail, the protein-DNA binding was analyzed by purchasing a LightShift Chemiluminescence EMSA kit (ThermoFisher Scientific, Waltham, MA, USA). The probe sequence for EGR-1 was synthesized by Macrogen company (Seoul, Korea) by ordering a deoxynucleotide labeled with biotin at the EGR-1 binding sequence (5'-biotin-AGAGTGTGTCTCCTTCGCACACATC-3'). The EGR-1 protein used in the experiment was an Sf21 insect cell extract overexpressing human EGR-1 protein as described in Yeo et al. [Journal of Investigative Dermatology 2021; 141:1851-1855]. Wild-type Sf21 cell extract was used as a negative control. After reacting 3 µg of EGR-1 overexpressing Sf21 cell extract, 1 µl of the compound of the present invention at a concentration of 20 mM, 50 fmol of the biotin-labeled EGR-1 binding deoxyoligonucleotide probe, and 1 µg poly(dI-dC) (Amersham Pharmacia Biotech Inc) for 20 minutes, electrophoresis was performed on a 6% non-denaturing polyacrylamide gel. The electrophoresed sample was transferred to a nylon membrane (Immobilon-Ny+ Transfer membrane, Millipore) and soaked in 5% skim milk solution for 30 minutes. Then, horseradish peroxidase-conjugated streptavidin was added and reacted for 15 minutes, and after washing unbound proteins from the membrane, the EGR-1-DNA complex was detected on X-ray film using an enhanced chemiluminescence (ECL) detection system (ThermoFisher Scientific). The intensity of the EGR-1-DNA complex band was analyzed using the ImageJ program (National Institute of Health, USA), and the intensity of the sample without the compound was set to 100%, and relative intensities were measured.
SMILES,expression level of TSLP mRNA (TSLP),expression level of IL-1β mRNA (IL-1β),expression level of IL-6 mRNA (IL-6),epidermal thickness [1] [µm],dermal thickness [1] [µm],macroscopic skin condition [1],expression of filaggrin [1],expression of TSLP [1],expression of MPO (neutrophil marker) [1],expression of F4/80 (macrophage marker) [1],mast cell infiltration [1],number of mast cells infiltrated [1] [per 2.5 cm^2],Inhibition Rate (%) (EGR-1 [2]),DNA binding of EGR-1 (EGR-1-DNA complex band) (EGR-1 [3])
"O=C1Nc2c(F)cccc2/C1=N/NC(=S)Nc1ccc(C(F)(F)F)cc1 [Compound 21, (Z)-2-(7-fluoro-2-oxoindolin-3-ylidene)-N-(4-(trifluoromethyl)phenyl)hydrazinethioamide]",decreased dose-dependently,decreased dose-dependently,decreased dose-dependently,25.22±2.993,163.4±7.905,significant improvement in skin condition,recovered to a level similar to normal tissue,significantly decreased,decreased similar to normal tissue,decreased similar to normal tissue,significantly reduced,18±2,70.20,inhibited DNA binding of EGR-1 in a concentration-dependent manner
"COc1ccc2c(c1)NC(=O)/C2=N\NC(=S)Nc1ccc(C#N)cc1 [Compound 25, (Z)-N-(4-cyanophenyl)-2-(6-methoxy-2-oxoindolin-3-ylidene)hydrazinethioamide]",decreased dose-dependently,decreased dose-dependently,decreased dose-dependently,23.46±1.530,157.8±17.05,significant improvement in skin condition,recovered to a level similar to normal tissue,significantly decreased,decreased similar to normal tissue,decreased similar to normal tissue,significantly reduced,15±5,76.13,inhibited DNA binding of EGR-1 in a concentration-dependent manner
"COc1ccc2c(c1)NC(=O)/C2=N\NC(=S)Nc1cccc([N+](=O)[O-])c1 [Compound 23, (Z)-2-(6-methoxy-2-oxoindolin-3-ylidene)-N-(3-nitrophenyl)hydrazin-1-carbothioamide]",decreased dose-dependently,decreased dose-dependently,decreased dose-dependently,22.92±3.617,147.5±8.302,significant improvement in skin condition,recovered to a level similar to normal tissue,significantly decreased,decreased similar to normal tissue,decreased similar to normal tissue,significantly reduced,19±5,67.63,inhibited DNA binding of EGR-1 in a concentration-dependent manner
